Results on one substance are retold here after patent US11672786B2, “Methods of treating diseases associated with repeat instability” (The Hospital for Sick Children, priority 2016, dated 2023).

Several values for one entry are separate records, joined by “and”; a condition that tells them apart may be missing. Identical values can stand only once.

The test system of experiment [1] is HT1080-non transcribing (CAG)850 cells. Kind of experiment: small-pool PCR repeat instability, HT1080-non transcribing (CAG)850 cells. It is filed as cell-based, human. The following applies: 50 uM NA, 30 days, repeat not transcribed. As to the method:
The construction of the HT1080-(CAG)850 cell model was described previously (Sathasivam et al., 1997, Hum. Genet., 99:692-5). Briefly, HT1080 (ATCC) human fibrosarcoma cells were co-transfected with a plasmid (LC15-R) containing 800-850 (CTG)●(CAG) repeats (Nakatani et al., 2005, Nat. Chem. Biol., 1:39-43) and a plasmid encoding PhiC31 integrase. Transfection was performed with a Nucleofector (Lonza, Basel, Switzerland), and stably transfected clones were selected with puromycin. […] The HT1080-non-transcribing (CAG)850 cell model was established by transfecting a plasmid modified from pLC16 by inserting an additional SV40 polyadenylation signal downstream of the repeats (in addition to the original polyadenylation signals located upstream of the repeats), so that CAG/CTG repeats are floxed by transcription-terminator elements. The AttB-PhiC31 system has been widely used for single copy integration. […] The HT1080 model cells and an HD primary fibroblast cell line, GM09197 (Coriell Biorepository) with a large expanded allele of 180 CAG repeats and a non-expanded allele of 23 repeats (Sathasivam et al., 1997, Hum. Genet., 99:[…]), the HD primary fibroblast cell line, GM02191 (Coreill Biorepository) with an expanded allele of 43 CAG repeats and a non-expanded allele of 19 repeats, were cultured at 37° C. with 5% CO2 in Dulbecco's modified Eagle's medium supplemented with 10% fetal bovine serum and 1% penicillin/streptomycin. Cells were treated with or without continuous exposure to 50-μM NA for 30 days (HT1080 cells) or for 40 days (fibroblast cells). For experiments on non-proliferating cells, HT1080 cells were grown to confluence and then treated for the same period. WST-1 assay was performed according to the manufacturer's instructions (Roche, Basel, Switzerland). All cell lines were tested to be free of Mycoplasma. Three biological replicates were performed for each experiment.
Genomic DNA was extracted from HT1080-(CAG)850 clones and HD primary fibroblasts using the Gentra Puregene Cell Kit (Qiagen, Valencia, Calif.). The expanded (CTG)●(CAG) repeats were sized by small-pool PCR (sp-PCR) followed by Southern blot as described previously (Sathasivam et al., 1997, Hum. Genet., 99:692-5). For HT1080 models, small-pool PCR (spPCR) was performed with the input of 1.4-1.7 genome equivalents. The repeat size difference in the models is, at most, 3000 base-pairs, therefore, being strictly conservative, a bias toward amplifying the shorter allele can be possible, even under optimized PCR conditions described herein. For HD primary fibroblasts, sp-PCR & Southern blots were performed as described previously with slight modifications (Tome et al., 2013, PLoS Genet., 9:e1003280). Briefly, the PCR primers listed in Table 1 were used, and blots were hybridized with a DIG-labeled (CAG)7 locked nucleic acid probe (Nakamori et al. 2009, Neuromuscul. Disord., 19:759-62). At least 50 alleles were analyzed for each of the three experiments (more than 150 alleles for a total study). Repeat analyses are summarized in Table 2, compiled from complete small-pool-PCR datasets for each repetition of each experiment. For the histograms in FIGS. 4D, 4E, 10, 11, 5B, 5D, 5E, 14 and 15B, the Y-axis, “% of repeat population” was calculated by determining the proportion of >50 individual small-pool PCR reactions across the CAG repeat tract, that harbored a certain size of repeat product with a certain length. Cell clones were grown 30 or 40 days with or without NA (see, for example, Sathasivam et al., 1997, Hum. Genet., 99:692-5). Specifically, the histograms of repeat length distributions were from at least two different cell clones. Length distributions were determined as follows: Small-pool PCR followed by Southern blot for analysis of CAG/CTG repeat length.

Experiment [2] concerns plasmid harboring (CAG)79●(CTG)79 repeats, R-loops. In words: in vitro transcription, R-loop formation, RNase A/H processing and R-loop stability. It counts as biochemical.
Method: Reaction products were then treated with RNase A (labeled “A”), to cleave all single-stranded RNAs, and resolved on 1% agarose gel. Control treatment with RNaseH (labeled “H”), eliminating RNA:DNA hybrids, was performed to reveal the RNA-free supercoiled DNAs. […] Reaction products then were resolved on 1% agarose gel. […] Double-R-loops were then treated with RNaseA or H (labeled “A” or “H”) and incubated with NA (50 μM). Reaction products were then resolved on 1% agarose gel. […] The position of supercoiled plasmid in dimer or monomer form is indicated by “SC”. The top “SC” represents linked dimers and the bottom “SC” represents monomers. In Panels C, D, and E, NA was either included in the transcription reaction (Panel C), only in the RNAse A/H reaction, only following the RNAse A/H clean-up.
Transcription reactions were performed as previously described (Reddy et al., 2014, Nuc. Acids Res., 42:10473-87). Briefly, 500 ng of template DNA in 1× transcription buffer (Roche) and 1× bovine serum albumin (NEB) were mixed for 1 h with 20 U of the appropriate RNA polymerase: T7, T3 or T7+T3 (Roche), with or without NA 120 μM. Samples were purified and then treated with either 1 g of RNase A (Roche) alone or with 1 g of RNase A (Roche) and 1 U of E. coli RNase H (Roche), at room temperature for 30 min, in the presence or in the absence of NA (120 μM). All in vitro transcription reaction products were analyzed on 1% agarose gels run in 1×TBE buffer at 80 V for 3 h. Gels were subsequently stained with ethidium bromide (0.5 mg/ml) to allow visualization of total nucleic acid under ultraviolet (UV) light.
Where [3] appears, read: single experiments Ex 1-3, cut-off ±25 repeats.

As to naphthyridine-azaquinolone, in experiment [1] (Total), the “% Contraction” value is given as 21.8%, the “% Expansion” value worked out at 12.1%, the “% Unchanged” value was determined as 66.1% and the “Average Change of Repeat Size” value is reported as −55.9 number of repeats. Also, the “% Unchanged” value in experiment [1] (single experiments Ex 1-3) was 66.7% and 62.5% and 69.1%. Besides, in experiment [1] (setting [3]), the “% Contraction” value is 22.2% and 21.4% and 21.8%; the “% Expansion” value was 11.1% and 16.1% and 9.1%. Further, the “effect on biophysical stability of R-loops” value in experiment [2] (NA 50 μM or 500 μM) was “did not affect the biophysical stability of R-loops”. Besides, the “effect on R-loop formation” value in experiment [2] (NA 120 μM during transcription) was “did not affect R-loop formation”. The “effect on transcription in vitro” value in experiment [2] (T3 or T7 RNA polymerases) is recorded as “nor did it affect transcription in vitro”.
